# Laboratory results taken from patent US10000771B2, “Nuclear targeting sequences” (Yeda Research and Development Co. Ltd., priority 2007, dated 2018).
# Ends that are not written are not given here. 2GFP = dimer of GFP proteins
# Key:
# [1] = tested on: SPS domain; test: SPS phosphorylation detected by anti pSPS Ab Western blot; format: cell-based; settings: COS7 cells; for SPS phosphorylation upon stimulation (anti pSPS Ab recognition): stimulated with VOOH, TPA, EGF or TGFβ, immunoprecipitation and Western blot
# Method: FIGS. 4A-4I are autoradiographs characterizing SPS phosphorylation using an Ab to the phosphorylated SPS domain. FIG. 4A illustrates an elevation of pSPS detection upon stimulation. COS cells were transfected with WT-GFP-ERK2. Twenty-four hr after transfection, the cells were serum-starved for 16 hr and subsequently treated with the general stimulator VOOH (V, 100 μM Na3VO4 and 200 μM H2O2, 15 min), TPA (T, 250 nM, 15 min), EGF (E, 50 ng/ml for 15 min), or left untreated (NT). The GFP-ERK2 was immunoprecipitated with anti GFP Ab, extensively washed, and the IP was then subjected to Western blotting with anti phospho SPS-ERK (αphoSPS-ERK) and anti general ERK (αgen-ERK) Abs. FIG. 4B is a time course of SPS phosphorylation. COS7 cells overexpressing WT-GFP-ERK2 were serum starved followed by EGF stimulation for the indicated time points. The lysates were then subjected to Western blot analysis as in FIG. 4A. FIGS. 4C-D. GFP-ERK2 was immunoprecipitated from VOOH stimulated (Act) or non-stimulated (NT), transfected COS7 cells as above. The immunoprecipitated protein was then incubated with shrimp's alkaline phosphates (SAP, 15 units, 30 min, 30° C. in the manufacturer digestion buffer), and subjected to Western blot analysis with anti phosphoSPS-ERK (αpSPS; FIG. 4C), anti phosphoTEY-ERK (αpTEY; FIG. 4D), and anti general-ERK Ab (αgen-ERK; FIGS. 4C, D). FIG. 4E. Elevation of anti pSPS Ab immunoreactivity upon stimulation of endogenous ERKs. Following serum starvation COS7 cells were treated with EGF (50 ng/ml) or VOOH (V, 100 μM Na3VO4 and 200 μM H2O2) for the indicated times. SPS phosphorylation was detected using the anti pSPS Abs, and this was compared to the amount of genral ERKs detected by αgERK. FIG. 4F. Specificity of the anti pSPS Ab. COS7 cells overexpressing either GFP-ERK2 or 244-6A mutant were serum starved for 16 hr, and then treated with EGF (50 ng/ml) for 15 min following WB analysis using αpSPS and αgERK Abs. FIG. 4G. TEY phosphorylation is not required for SPS phosphorylation. COS7 cells overexpressing WT-ERK2 or TEY-AAA were treated as described in D. FIG. 4H. COS7 cells were treated with or without UO126 prior (15 min) to EGF (50 ng/ml) stimulation for the indicated times. SPS-phosphorylation was detected using αpSPS and αgERK Abs. FIG. 4I. Phosphorylation of SPS is mediated by ERK autophosphorylation. […] The phosphorylation (^32P-ERK2) of ERK and its mutants was detected by autoradiography. […]
# FIG. 9B is an autoradiograph illustrating that stimulation elevates pSPS phosphorylation of 2GFP-SPS construct. […] The total amount of immunoprecipitated 2GFP-SPS was detected with αGFP Ab. […]
# [2] = target: T1, importin-7 (Homo sapiens, UniProt O95373); test: Coimmunoprecipitation with importin-7; format: binding; settings: HeLa cells
# T1 construct: endogenous in cells; host or cells: HeLa
# T1 sequence (O95373 whole entry): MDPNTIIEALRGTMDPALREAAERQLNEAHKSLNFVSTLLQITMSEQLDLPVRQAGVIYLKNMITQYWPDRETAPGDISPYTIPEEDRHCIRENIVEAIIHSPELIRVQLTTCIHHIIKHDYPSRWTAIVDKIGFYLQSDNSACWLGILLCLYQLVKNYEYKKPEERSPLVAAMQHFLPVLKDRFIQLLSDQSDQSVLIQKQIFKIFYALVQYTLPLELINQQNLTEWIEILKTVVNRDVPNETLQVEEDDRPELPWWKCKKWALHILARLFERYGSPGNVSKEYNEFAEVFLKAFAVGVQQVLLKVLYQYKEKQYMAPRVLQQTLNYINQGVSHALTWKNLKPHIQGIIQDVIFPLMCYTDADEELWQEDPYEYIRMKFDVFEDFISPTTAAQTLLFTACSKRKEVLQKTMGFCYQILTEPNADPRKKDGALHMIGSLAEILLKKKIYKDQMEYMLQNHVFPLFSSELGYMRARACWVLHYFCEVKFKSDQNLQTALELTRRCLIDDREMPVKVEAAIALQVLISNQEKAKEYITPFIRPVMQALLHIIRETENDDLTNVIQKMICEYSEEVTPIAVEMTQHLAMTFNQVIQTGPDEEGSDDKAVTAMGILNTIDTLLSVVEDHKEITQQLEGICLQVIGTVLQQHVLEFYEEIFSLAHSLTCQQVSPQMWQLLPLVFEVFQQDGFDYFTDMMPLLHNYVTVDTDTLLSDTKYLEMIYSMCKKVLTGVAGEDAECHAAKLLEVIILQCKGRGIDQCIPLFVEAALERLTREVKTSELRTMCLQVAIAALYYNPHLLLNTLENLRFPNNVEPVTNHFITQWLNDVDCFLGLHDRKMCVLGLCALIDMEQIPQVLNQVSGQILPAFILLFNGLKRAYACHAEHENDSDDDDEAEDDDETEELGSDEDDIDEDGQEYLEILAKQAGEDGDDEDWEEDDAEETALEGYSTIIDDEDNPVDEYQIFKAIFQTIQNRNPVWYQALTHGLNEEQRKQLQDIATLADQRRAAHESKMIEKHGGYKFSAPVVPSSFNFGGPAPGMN
# Method: (§1) FIGS. 19A-19C are autoradiographs illustrating that phospho-SPS interacts with importin-7 and releases Nup153c binding without involvment of importin-β. […]. Interaction of ERK2 with Importin-7 is enhanced by EGF stimulation and EPE mutation. HeLa cells overexpressing WT-ERK (WT), ERK-APA (APA), ERK-EPE (EPE) or GFP were serum starved and treated with EGF (50 ng/ml, 10 min). The extracts of the treated cells were then subjected to coimmunoprecipitation using A/G beads pre-conjugated with anti GFP Ab and mild washes. The coimmunoprecipitated importin-7 (first panel) and importin-β (third panel), as well as their loading amounts (panels 2 and 4 respectively) were determined by WB using anti importin-7 (αImp7) and importin-β (αImpβ) Abs. The equal amount of immunoprecipitated ERKs was determined with anti GFP (αGFP; IP) Ab. FIG. 19B. Interaction of 2GFP-SPS and its mutants with importin-7. HeLa cells overexpressing 2GFP, 2GFP-SPS, 2GFP-APA and 2GFP-EPE constructs were subjected to coimmunoprecipitation as described in FIG. 19A (without EGF stimulation). FIG. 19C. Interaction of NUP153 with WTERK2 and its APA and EPE mutants. NUP153c is elevated in APA-ERK2, but reduced in EPE-ERK2. Immunoprecipitated and stringently washed WT-ERK2 (WT), APA-ERK2 (APA) or ERK2 from […] cells pre-treated with or without TPA (250 nM, 15 min) were incubated with 0.5 μg recombinant His-Nup153c. This was followed by mild washing, and the beads were then subjected to Western blot analysis using anti His (αHis) and anti αGFP Abs.
# Immunoprecipitation. Cellular extracts of stimulated transfected cells, were incubated with anti-GFP antibody preconugated to A/G beads (Santa Cruz; (2 hr, 4° C.). Subsequently, the beads were washed twice with HNTG buffer and once with 0.5 M LiCl. The immunoprecipitates were subjected either to Western blotting as described above or to an in vitro phosphatase assay as described under Results.
# [3] = tested on: Nup153c; test: Interaction with recombinant His-Nup153c; format: binding; settings: immunoprecipitated ERK2 incubated with 0.5 μg recombinant His-Nup153c
# Method: as §1, with “This was followed by mild washing, and the beads were then subjected to Western blot analysis using anti His (αHis) and anti αGFP Abs.” left out
"interaction of 2GFP constructs with importin-7 ([2]; coimmunoprecipitation, without EGF stimulation)",Substance,SPS phosphorylation upon stimulation (anti pSPS Ab recognition) [1],time of peak SPS phosphorylation ([1]; following EGF stimulation) [min],"interaction of ERK2 constructs with importin-7 ([2]; coimmunoprecipitation with anti GFP Ab, with or without stimulation)",interaction with Nup153 [3]
did bind importin-7,2GFP-SPS: 2GFP with the 19 amino acid stretch containing the SPS of ERK2 (SEQ ID NO: 6) fused to its C terminus (2GFP-LDQLNHILGILGSPSQEDL),elevates,–,–,–
–,"WT-ERK2: wild-type ERK2 fused to GFP, prepared in pEGFP C1 [reference compound]",significantly increased,15,significantly increased upon TPA stimulation,interacts with Nup153
